What was measured:
Assay type in all cases: in vivo, Wistar rats
[1] = tested on: nitrites and nitrates (NOx-); assay: Measurement of nitrates/nitrites (NOx-) in brain regions after the morphine abstinence experiment
Description: (§1) After the above experiments the rat brains were isolated and immediately placed in the ice cold 0.9% solution of sodium chloride. After cooling the following structures were isolated from the brain: cerebral cortex, hippocampus, mesencephalon, striatum, brainstem, hypothalamus and cerebellum. The isolated tissue was homogenized in a Potter S homogenizer for 3 minutes at 1500 rpm in 4-5 volumes of 20 mM HEPES (pH 7.5) at 4° C. The supernatants were centrifuged for 30 minutes at 11000 g at 4° C., and aliquots of the obtained supernatants were taken for determining nitrates and nitrites (NOx-), while the remaining part was mixed with cooled 20 mM of HEPES (pH 7.5), containing 0.5 mM ethylenediamine tetraacetate (EDTA), 1 mM dithiotreitol (DDT), 1 mM phenylmethylsulfonyl fluoride (PMSF), aprotinine and leupeptine at a concentration of 5 μg/ml, this mixture being used for determining nitric oxide synthase (NOS) activity.
To estimate the intensity of metabolism of nitric oxide in rats, quantitative determination of stable metabolites of nitrogen oxide-nitrites and nitrates (NOx-) was performed using a fluorometric method by fluorescence of naphthotriazole, a product of reaction of 2,3- diaminonaphthalene (DAN) and nitrite in an acidic medium (Misko T. R., Schilling R. J., Salvemini D. et al. A fluorometric assay for the measurement of nitrite in biological samples. Anal. Biochem., 1993, V. 214, p.11-16) with modifications (Lei B., Adachi N., Nagaro T., Arai T. Measurement of total nitric oxide metabolite (NO (x) (-)) levels in vivo. Brain. Res. Protoc., 1999, V. 4, p. 415-419).
The supernatants of brain deproteinized at 100° C. were placed in a nitrite recovery system containing 0.125 unit/ml of nitrate reductase, 25 μM NADPH and 25 μM FAD prepared in 20 mM Tris-HCl buffer pH 7.6 and incubated for 30 minutes at 37° C. For oxidation of NADPH a lactate dehydrogenase (LDH)/pyruvate system was used. Then 316.0 μM DAN solution in 0.62 M HCl was added and the mixture was incubated for 10 minutes in dark. For stabilization of fluorescence of the formed naphthotriazole, 280 mM NaOH was added. The fluorescence intensity was measured using spectrofluorometer Hitachi F-3000 at a wavelength of excitation 365 nm and emission 405 nm. To calculate the concentration of NOx- in the brain a standard solution of sodium nitrate was used. The concentration of NOx- was expressed in nmol/mg of protein.
(§2) The content of protein in the samples was determined by the Bradford method (Bradford M. M. A rapid and sensitive method for quantitation of microgram quantities of protein using the principle of protein binding . Anal. Biochem., 1976, V. 72, p. 248-254) using Coumassi dye. The statistical analysis was performed using methods appropriate for respective experiments. The data are expressed as mean±standard error of mean.

[2] = tested on: physical dependence from morphine (morphine abstinence); assay: Morphine abstinence syndrome, signs scored in the open field test
Description: Thirty six hours after the last injection selected motor and autonomice parameters which are specific symptoms of abstinence were monitored in the <<open field>> test (an arena with a diameter of 120 cm and wall height of 40 cm).
Med., 2002, V.29, p.1-6.). The observable signs were recorded quantitatively (if it was possible) with further assignment of an index to each sign (depending on the specific feature of the sign) and calculation of the sum of scores. The expression of the abstinence syndrome was presented as a sum of scores. The results were processed using nonparametric statistical analysis based on the Mann-Whitney test.

[3] = tested on: nitric oxide synthase (NOS); assay: Nitric oxide synthase activity in brain regions, radiometric [3H]L-citrulline method; details: 3 x 20 mg/kg intramuscularly
Description: as §1
The activity of nitric oxide synthase (NOS) was determined using a radiometric method by the rate of L-citrulline accumulation in a reaction of [^3H] L-arginine oxidation catalyzed by NOS (Bredt M., Snyder S. Nitric oxide mediates glutamate-linked enhancement of cGMP levels in the cerebellum. Proc. Natl. Acad. Sci., USA, 1989, V.86, p.9030-9033). The formation of L-citrulline in this reaction is equivalent to a biosynthesis of nitric oxide.
The reaction was initiated by adding brain supernatant in the reaction medium containing 2 μCi/ml of [3H] L-arginine, 20 mM HEPES (pH 7.4), 0.2 mM CaCl2, 5 μM FAD, 5 μM FMN, 1 mM NADPH, 50 μM of BH4. After 15-60 minutes of incubation at 37° C. a suspension of Dowex 50WX8-400 (Na^+-form), which sorbs unreacted [^3H]L-arginine, but not [^3H] L-citrulline was added to the samples. After the sorption the radioactivity of the samples was determined on a scintillation counter SL-4000 (“Intertechnique”). The activity of Ca^2+-dependent and Ca^2+-independent NOS isoforms was determined by the difference of rates of [^3H]L-citrulline formation in three parallel samples containing 2 mM EDTA (Ca^2+ chelator), 2 mM EDTA+2 mM L-NAME (inhibitor all NOS isoforms) or without inhibitors. The enzyme activity was expressed in rnol [^3H]L-citrulline acumulated per 1 minute on 1 mg of supernatant protein.
as §2

[4] = Groups Nos. 3-14, compound without morphine, 3 x 20 mg/kg intramuscularly, one value for all 12 compounds
[5] = Morphine + compound, 3 x 20 mg/kg intramuscularly, one value for the three compounds
[6] = Morphine − (morphine + compound), compound 3 x 20 mg/kg intramuscularly, one value for the three compounds
[7] = Groups Nos. 3-14, compound without morphine, one value for all 12 compounds
[8] = Morphine + compound, one value for the three compounds
[9] = Control − morphine, open field, 36 h after last morphine injection

O=c1[nH]n([C@@H]2O[C@H](CO)[C@@H](O)[C@H]2O)c(=O)c2ncccc12.[Na] [Compound 1, sodium salt of 7-(β-D-ribofuranosile)pyrido[2,3-d]-6H-pyridazine-5,8-dione]
Nitrites, brainstem [1, 4]: 6.31 ± 0.58 nmol/mg of protein
Nitrites, cerebellum [1, 4]: 6.66 ± 0.63 nmol/mg of protein
Nitrites, cerebral cortex [1, 4]: 4.31 ± 0.37 nmol/mg of protein
Nitrites, hippocampus [1, 4]: 6.47 ± 0.72 nmol/mg of protein
Nitrites, hypothalamus [1, 4]: 6.77 ± 0.83 nmol/mg of protein
Nitrites, midbrain [1, 4]: 6.65 ± 0.70 nmol/mg of protein
Nitrites, striatum [1, 4]: 6.11 ± 0.29 nmol/mg of protein
Nitrites, brainstem [1, 5]: 6.57 ± 0.72 nmol/mg of protein
Nitrites, cerebellum [1, 5]: 5.46 ± 0.44 nmol/mg of protein
Nitrites, cerebral cortex [1, 5]: 4.72 ± 0.37 nmol/mg of protein
Nitrites, hippocampus [1, 5]: 5.44 ± 0.43 nmol/mg of protein
Nitrites, hypothalamus [1, 5]: 6.57 ± 0.88 nmol/mg of protein
Nitrites, midbrain [1, 5]: 5.50 ± 0.48 nmol/mg of protein
Nitrites, striatum [1, 5]: 3.57 ± 0.42 nmol/mg of protein
Authentic differences (ξ-square criterion) in appearance of signs of abstinence: <<Wet dog>> shakes [2, 6]: 1.0000
Authentic differences (ξ-square criterion) in appearance of signs of abstinence: Aggression [2, 6]: 0.8327
Authentic differences (ξ-square criterion) in appearance of signs of abstinence: Convulsions [2, 6]: 0.7821
Authentic differences (ξ-square criterion) in appearance of signs of abstinence: Diarrhea [2, 6]: 0.0046
Authentic differences (ξ-square criterion) in appearance of signs of abstinence: Dyspnea [2, 6]: 0.0722
Authentic differences (ξ-square criterion) in appearance of signs of abstinence: Forelimb jogging [2, 6]: 0.7821
Authentic differences (ξ-square criterion) in appearance of signs of abstinence: Grit with teeth [2, 6]: 0.7144
Authentic differences (ξ-square criterion) in appearance of signs of abstinence: Mastication [2, 6]: 0.1888
Authentic differences (ξ-square criterion) in appearance of signs of abstinence: Piloerection [2, 6]: 0.1847
Authentic differences (ξ-square criterion) in appearance of signs of abstinence: Ptosis [2, 6]: 0.0201
Authentic differences (ξ-square criterion) in appearance of signs of abstinence: Rhinorrhea [2, 6]: 0.3017
Authentic differences (ξ-square criterion) in appearance of signs of abstinence: Squeak when touched [2, 6]: 0.1888
Activity of NOS, hippocampus [3, 7]: 3.09 ± 0.16 nmol/min/mg of protein
Activity of NOS, hypothalamus [3, 7]: 5.45 ± 0.24 nmol/min/mg of protein
Activity of NOS, midbrain [3, 7]: 2.60 ± 0.29 nmol/min/mg of protein
Activity of NOS, striatum [3, 7]: 1.26 ± 0.08 nmol/min/mg of protein
Activity of NOS, hippocampus [3, 8]: 2.70 ± 0.14 nmol/min/mg of protein
Activity of NOS, hypothalamus [3, 8]: 5.26 ± 0.28 nmol/min/mg of protein
Activity of NOS, midbrain [3, 8]: 1.83 ± 0.23 nmol/min/mg of protein
Activity of NOS, striatum [3, 8]: 1.24 ± 0.08 nmol/min/mg of protein

O=c1[nH]n([C@@H]2O[C@H](CO)[C@@H](O)[C@H]2O)c(=O)c2nccc(O)c12.[Na] [Compound 4, isodium salt of 4-hydroxy-7-(β-D-ribofuranosile)pyrido[2,3-d]-6H-pyridazine-5,8-dione]
Nitrites, brainstem [1, 4]: 6.31 ± 0.58 nmol/mg of protein
Nitrites, cerebellum [1, 4]: 6.66 ± 0.63 nmol/mg of protein
Nitrites, cerebral cortex [1, 4]: 4.31 ± 0.37 nmol/mg of protein
Nitrites, hippocampus [1, 4]: 6.47 ± 0.72 nmol/mg of protein
Nitrites, hypothalamus [1, 4]: 6.77 ± 0.83 nmol/mg of protein
Nitrites, midbrain [1, 4]: 6.65 ± 0.70 nmol/mg of protein
Nitrites, striatum [1, 4]: 6.11 ± 0.29 nmol/mg of protein
Nitrites, brainstem [1, 5]: 6.57 ± 0.72 nmol/mg of protein
Nitrites, cerebellum [1, 5]: 5.46 ± 0.44 nmol/mg of protein
Nitrites, cerebral cortex [1, 5]: 4.72 ± 0.37 nmol/mg of protein
Nitrites, hippocampus [1, 5]: 5.44 ± 0.43 nmol/mg of protein
Nitrites, hypothalamus [1, 5]: 6.57 ± 0.88 nmol/mg of protein
Nitrites, midbrain [1, 5]: 5.50 ± 0.48 nmol/mg of protein
Nitrites, striatum [1, 5]: 3.57 ± 0.42 nmol/mg of protein
Authentic differences (ξ-square criterion) in appearance of signs of abstinence: <<Wet dog>> shakes [2, 6]: 1.0000
Authentic differences (ξ-square criterion) in appearance of signs of abstinence: Aggression [2, 6]: 0.8327
Authentic differences (ξ-square criterion) in appearance of signs of abstinence: Convulsions [2, 6]: 0.7821
Authentic differences (ξ-square criterion) in appearance of signs of abstinence: Diarrhea [2, 6]: 0.0046
Authentic differences (ξ-square criterion) in appearance of signs of abstinence: Dyspnea [2, 6]: 0.0722
Authentic differences (ξ-square criterion) in appearance of signs of abstinence: Forelimb jogging [2, 6]: 0.7821
Authentic differences (ξ-square criterion) in appearance of signs of abstinence: Grit with teeth [2, 6]: 0.7144
Authentic differences (ξ-square criterion) in appearance of signs of abstinence: Mastication [2, 6]: 0.1888
Authentic differences (ξ-square criterion) in appearance of signs of abstinence: Piloerection [2, 6]: 0.1847
Authentic differences (ξ-square criterion) in appearance of signs of abstinence: Ptosis [2, 6]: 0.0201
Authentic differences (ξ-square criterion) in appearance of signs of abstinence: Rhinorrhea [2, 6]: 0.3017
Authentic differences (ξ-square criterion) in appearance of signs of abstinence: Squeak when touched [2, 6]: 0.1888
Activity of NOS, hippocampus [3, 7]: 3.09 ± 0.16 nmol/min/mg of protein
Activity of NOS, hypothalamus [3, 7]: 5.45 ± 0.24 nmol/min/mg of protein
Activity of NOS, midbrain [3, 7]: 2.60 ± 0.29 nmol/min/mg of protein
Activity of NOS, striatum [3, 7]: 1.26 ± 0.08 nmol/min/mg of protein
Activity of NOS, hippocampus [3, 8]: 2.70 ± 0.14 nmol/min/mg of protein
Activity of NOS, hypothalamus [3, 8]: 5.26 ± 0.28 nmol/min/mg of protein
Activity of NOS, midbrain [3, 8]: 1.83 ± 0.23 nmol/min/mg of protein
Activity of NOS, striatum [3, 8]: 1.24 ± 0.08 nmol/min/mg of protein

CN1CC[C@]23c4c5ccc(O)c4O[C@H]2[C@@H](O)C=C[C@H]3[C@H]1C5.Cl [morphine, morphine hydrochloride, reference compound]
Nitrites, cerebellum ([1]; Group No. 2 (morphine)): 6.07 ± 0.42 nmol/mg of protein
Nitrites, hippocampus ([1]; Group No. 2 (morphine)): 6.45 ± 0.69 nmol/mg of protein
Nitrites, hypothalamus ([1]; Group No. 2 (morphine)): 4.62 ± 0.71 nmol/mg of protein
Authentic differences (ξ-square criterion) in appearance of signs of abstinence: <<Wet dog>> shakes [2, 9]: 0.0002
Authentic differences (ξ-square criterion) in appearance of signs of abstinence: Aggression [2, 9]: 0.5770
Authentic differences (ξ-square criterion) in appearance of signs of abstinence: Convulsions [2, 9]: 0.0507
Authentic differences (ξ-square criterion) in appearance of signs of abstinence: Diarrhea [2, 9]: 0.0075
Authentic differences (ξ-square criterion) in appearance of signs of abstinence: Dyspnea [2, 9]: 0.0053
Authentic differences (ξ-square criterion) in appearance of signs of abstinence: Forelimb jogging [2, 9]: 0.0180
Authentic differences (ξ-square criterion) in appearance of signs of abstinence: Grit with teeth [2, 9]: 0.1266
Authentic differences (ξ-square criterion) in appearance of signs of abstinence: Piloerection [2, 9]: 0.5770
Authentic differences (ξ-square criterion) in appearance of signs of abstinence: Ptosis [2, 9]: 0.0053
Authentic differences (ξ-square criterion) in appearance of signs of abstinence: Rhinorrhea [2, 9]: 0.2994
Authentic differences (ξ-square criterion) in appearance of signs of abstinence: Squeak when touched [2, 9]: 0.0053
